Experimental data: the NIST ThermoML archive (doi:10.1021/je800517r)
Where “and” joins values, the source holds several entries; their conditions need not be identical. Equal values may be shown once. ± gives the expanded uncertainty stated by the source.

Assay: activity coefficient (dimensionless); of the first substance listed, at infinite dilution; xn = mol fraction of the nth substance listed
Details: Liquid, comparative ebulliometry, circulation still, and differential distillation method, x1 = 0

CC(=O)N(C)C [N,N-dimethylethanamide] + O
Details	activity coefficient
343.15 K	1.27 ± 0.08
343.51 K	1.29 ± 0.08
349.03 K	1.46 ± 0.09
351.15 K	1.37 ± 0.08
353.5 K	1.72 and 1.79
363.87 K	2.06 and 2.24
370.86 K	2.12 ± 0.13
372.28 K	2.05 ± 0.12

CNC(C)=O [N-methylacetamide] + O
Details	activity coefficient
333.15 K	1.7 ± 0.1
343.15 K	1.78 ± 0.11
353.15 K	1.82 ± 0.11

CNC=O [N-methylformamide] + O
Details	activity coefficient
333.15 K	1.37 ± 0.08
343.15 K	1.42 ± 0.09
353.15 K	1.44 ± 0.09
372.65 K	1.65 ± 0.1

CN(C)C=O [dimethylformamide] + O
Details	activity coefficient
343.73 K	1.23 ± 0.07
349.05 K	1.27 ± 0.08
353.45 K	1.3 ± 0.08
357.91 K	1.3 ± 0.08
358.5 K	1.36 ± 0.08
363.82 K	1.35 ± 0.08
368.38 K	1.59 ± 0.1
371.62 K	1.54 ± 0.09
372 K	1.66 ± 0.1
